Results on nine compounds are retold here after patent US9051248B2, “Methods, compounds, and compositions for delivering 1,3-propanedisulfonic acid” (BHI Limited Partnership, priority 2009, dated 2015).

Data set [1] can be described thus: PK study in rats (1,3PDS plasma AUC after oral administration of prodrugs). The following applies: rat plasma, oral gavage, dose molar equivalent to 100 mg/kg 1,3PDS(2Na).
Method: (§4) For 1,3PDS(2Na), the concentration in the dosing formulation was standardized to such a level that the dose would be 100 mg/kg (or 0.4 mmol/kg) for in vivo protocol specified dosing volume in a particular animal species. For a prodrug, the weight of sample in the dosing formulation varied based on molecular weight in such a way that equimolar dose (0.4 mmol/kg) for all the prodrugs would be administered when given same volume of dosing formulation to the animals. The dosing volume used for was 10 mL/kg for rats and monkeys, and 5 mL/kg for ferrets; or the concentration of dosing formulation was 0.04 mmol/mL for rats and monkeys, and 0.08 mmole/mL for ferrets. The vehicles used can either be water, 0.5% Methocel™ in water or 2% benzyl alcohol in corn oil. The dosing solution can either be a solution, a suspension or an emulsion. For different levels of doses, the amounts of the compounds used in the dosing formulation preparation were adjusted accordingly.
(§5) One group of four male Sprague-Dawley rats of age 7-9 weeks (body weight of 200-300 g) were fasted for 15 to 17 h before being dosed through oral gavage administration with the dosing solution/suspension prepared from test compounds according to Example 40 at a dose specified in Table 5 in a concentration adjusted to a dosing volume of 10 ml/kg-body weight. Food was supplied two hours post dose. Blood samples (200 μL blood) were collected into Sarstedt micro tubes (EDTA K3E/0.5 mL) from the jugular vein of each animal (4 animals/group) at pre-dose and at the following time-points of post-dose: 15 min., 30 min., 1 h, 2 h, 4 h, 6 h, 8 h, 12 h, and 24 h. The collected blood samples were kept on ice and then centrifuged at 4° C. at a minimum speed of 3000 rpm (1620G) for 10 min to prepare the plasma samples. The plasma samples were stored at −80° C. until analysis. An aliquot of dosing formulation was also taken prior to the dosing and stored at −20° C. for analysis.
(§6) 1,3PDS was extracted from an aliquot of rat, mouse, ferret or monkey plasma using protein precipitation and then injected into a liquid chromatograph equipped with a tandem mass spectrometry detector. Quantification was done by peak area ratio method. A weighted (1/X^2) linear regression was performed to back calculate the concentration of the analyte.
(§7) For the various pharmacokinetic studies conducted in rats, ferrets and monkeys, plasma (and blood) concentration-time data for the prodrug and 1,3PDS were analyzed by non-compartmental analysis (NCA) using the software program WinNonlin® Professional Version 5.2.1. In order to conduct the NCA, at least 3 measurable concentrations had to be available in a concentration-time profile. The following pharmacokinetic parameters were determined for plasma (or blood) data: Cmax, Tmax, AUC0-Tlast, AUC0-∞, λz, and T1/2. Since the prodrugs and 1,3PDS were administered at equimolar doses, the effect of the prodrugs on the bioavailability of 1,3PDS was assessed by comparing the Cmax and AUC of 1,3PDS after administering a prodrug with that after administering 1,3PDS.
For data set [2] the following is noted: rat, in vivo, po, 100 mg/kg.
Method: as §4, §5, §6, §7
Data set [3] in a line: Human whole blood stability. It counts as in vitro ADME. The following applies: fresh human whole blood, 37° C.; for Conversion to 1,3PDS (% by molar ratio) 0 h: about 100 μg/mL. As to the method: The objective of this test was to determine the stability of the prodrugs in fresh human whole blood at different time-points (0, 0.5, 1, 4, 24 hours). Blood samples were incubated in a shaking water bath at 37° C. for up to 24 hours. The compound (prodrug) was added at Time-point 0, and sample aliquots were withdrawn and analyzed at each time point to determine the concentration of 1,3PDS. If possible, the loss of compound was determined by the amounts of compound determined at each time point compared to the amount determined at Time-point 0. To eliminate the conversion due to the matrix, a special Time-point 0 was prepared in pre-extracted blood sample.
Approximately 2.5 mL of whole blood was incubated in a gently shaking water bath at 37° C. for 15 minutes. Two (2) mL of the pre-incubated whole blood were aliquoted in an eppendorf tube. A 100 μL aliquot of blood was removed and 100 μL of the compound Stock Solution was added. The solution was mixed by inversion. This sample was referred to as Tube A. The final concentration of the compound in tube A was approximately at 100 μg/mL. Immediately after mixing, 100 μL of Tube A was aliquotted into 3 different eppendorf tubes. These samples were extracted as described in the “Extraction Procedure” Section. These samples were referred to Time-point 0. Thereafter, the incubation of Tube A was continued in the shaking water bath at 37° C. for 0.5, 1, 4 and 24 hours. At each specific time point of incubation, aliquots (triplicate) of 100 μL were removed and extracted as described in the “Extraction Procedure” Section. To avoid potential further degradation of compound and/or possible degradation products, the aliquot extracts were kept on ice until analysis. After extraction, samples were analyzed using LC-MS/MS method.
A volume of 300 μL of cold-ice acetonitrile was added to a 1.5 mL eppendorf tube and kept on ice until utilization. 100 μL of the sample to be extracted was added and the mix was vortexed (acetonitrile and blood). The sample was centrifuged at 16250×g (13200 rpm on IEC centrifuge with eppendorf rotor) for 5 minutes. A volume of 250 μL of the supernatant was transferred to another tube and evaporated to dryness under a nitrogen stream. The residue was reconstituted with the mobile phase. This sample was then analyzed according to 1,3PDS specific methods.
The concentrations of 1,3PDS were calculated based on the nominal concentration of the calibration standards and their respective peak area ratio. A linear regression using a weight of 1/x^2 is used to derive the concentration of 1,3PDS. The % appearance of 1,3PDS was determined by the amounts of compound determined at each time point compared to nominal concentration (100%) of 1,3PDS generated by 100% of the prodrug (equivalent concentration).

Data set [4] can be described thus: Water stability (conversion of prodrug to 1,3PDS). It counts as physicochemical. Conditions: deionized water; for Conversion to 1,3PDS (%) 1 h / Conversion to 1,3PDS (%) 2 h: 37° C.; for Conversion to 1,3PDS (%) 0 h / Conversion to 1,3PDS (%) 24 h: room temperature; for Conversion to 1,3PDS (%) 0 h: 200 μg/mL. As to the method: (§1) The objective of this test was to determine the stability of the prodrugs in simulated gastric fluid (SGF) and water at 37° C. up to 2 hours and in water at room temperature up to 24 hours.
(§2) Simulated gastric fluid and water samples were incubated in a shaking water bath at 37° C. for up to 2 hours. The compound (prodrug) was added at Time-point 0. At each selected time point (refer to table), sample aliquots were withdrawn and analyzed to determine the concentration of 1,3-propanedisulfonic acid (1,3PDS). The concentrations of 1,3PDS were calculated based on their respective peak area. The % appearance of 1,3PDS was determined by the amounts of compound determined at each time point compared to nominal concentration (100%) of 1,3PDS generated by 100% of the prodrug (equivalent concentration).
A fresh stock solution at approximately 2 mg/mL of the compound was prepared. One stability solution at 200 μg/mL in the SGF was prepared (sample referred to as Tube A). A stability solution at 200 μg/mL in deionized water was prepared (sample referred to as Tube B). Immediately after preparation, each 200 μg/mL solution was diluted in triplicates to 20 μg/mL in deionized water and analyzed using LC-MS/MS method (Time-point 0). Thereafter, the incubation of tubes A and B was continued in the shaking water bath at 37° C. for 1 and 2 hours while one aliquot of tube B was kept at room temperature for 24 hours. At each specific time point of incubation, 3 aliquots (triplicate) of 50 μL were removed, diluted in 450 μL of water and analyzed using LC-MS/MS method. In parallel, 3 reference samples of 1,3PDS at 100, 10 and 1 μg/mL were prepared, diluted in triplicate in water and injected at the beginning and at the end of the batch. These samples were considered as reference samples.
(§3) The concentrations of 1,3PDS were calculated based on response of the reference samples and their respective peak area response. The % appearance of 1,3PDS was determined by the amounts of compound determined at each time point compared to expected nominal concentration (100%) of 1,3PDS generated by 100% of the prodrug (equivalent concentration).

Data set [5] is described as follows: Simulated gastric fluid (SGF) stability. The following applies: SGF pH 1.5 with pepsin, 37° C. It is filed as in vitro ADME. As to the method: as §1, §2
Amounts of 0.2 g of sodium chloride and 0.32 g of pepsin were weighted and transferred into a 100-mL volumetric flask. Approximately 50 mL of deionized water was added and the mixture well mixed. A volume of 700 μL of hydrochloric acid was added, and the volume completed to 100 mL with deionized water. The resulting mixture was transferred in a polypropylene bottle and pH measured (pH=1.5).
A fresh stock solution at approximately 2 mg/mL of the compound was prepared. One stability solution at 200 μg/mL in the SGF was prepared (sample referred to as Tube A). […] Immediately after preparation, each 200 μg/mL solution was diluted in triplicates to 20 μg/mL in deionized water and analyzed using LC-MS/MS method (Time-point 0). […] At each specific time point of incubation, 3 aliquots (triplicate) of 50 μL were removed, diluted in 450 μL of water and analyzed using LC-MS/MS method. […]
as §3

[6] abbreviates: vehicle 2 0.5% Methocel in water.

Where two headings read alike, the source gives them in different places.

For `O=S(O)CCCS(=O)O` [P1(2Na)], the “1,3PDS AUC0-Tlast” value in data set [1] (setting [6]) is “BLLQ”.

Take `CC(C)(COS(=O)(=O)CCCS(=O)(=O)OCC(C)(C)[N+](=O)[O-])[N+](=O)[O-]` [Compound B72]: the “1,3PDS AUC0-Tlast” value in data set [2] is listed as “BLLQ”.

For the compound `CC(C)(COS(=O)(=O)CCCS(=O)(=O)OCC(C)(C)C(=O)OCc1ccccc1)C(=O)OCc1ccccc1` [Compound B30], the “Conversion to 1,3PDS (% by molar ratio) 0 h” value in data set [3] is on record as “BLLQ”. In addition, in data set [4], the “Conversion to 1,3PDS (%) 1 h” value is listed as 0.0%, the “Conversion to 1,3PDS (%) 2 h” value turned out to be 0.0%, the “Conversion to 1,3PDS (%) 0 h” value was 0.0% and the “Conversion to 1,3PDS (%) 24 h” value is 0.0%.

In the case of `COC(=O)c1ccccc1OS(=O)(=O)CCCS(=O)(=O)O` [A32(Na)], the “1,3PDS AUC0-Tlast” value in data set [1] (vehicle 1 water) is 1097 ng·h/mL. In data set [3], the “Conversion to 1,3PDS (% by molar ratio) 0.5 h” value amounted to 0.1 % by molar ratio, the “Conversion to 1,3PDS (% by molar ratio) 1 h” value is reported as 0.2 % by molar ratio, the “Conversion to 1,3PDS (% by molar ratio) 4 h” value came to 0.4 % by molar ratio and the “Conversion to 1,3PDS (% by molar ratio) 24 h” value is 2.0 % by molar ratio. Also, the “Conversion to 1,3PDS (% by molar ratio) 0 h” value in data set [3] is 0.1 % by molar ratio. Besides, the “Conversion to 1,3PDS (%) 0 h” value in data set [5] (0 h) is on record as 0.0%. Further, the “Conversion to 1,3PDS (%) 1 h” value in data set [5] (1 h) was 0.0%. Further, in data set [5] (2 h), the “Conversion to 1,3PDS (%) 2 h” value was 0.0%. For the same compound, in data set [4], the “Conversion to 1,3PDS (%) 1 h” value came to 0.1%, the “Conversion to 1,3PDS (%) 2 h” value was 0.1%, the “Conversion to 1,3PDS (%) 0 h” value amounted to 0.0% and the “Conversion to 1,3PDS (%) 24 h” value is listed as 0.0%.

In the case of `CCOP(=O)(OCC)OCC(C)(C)COS(=O)(=O)CCCS(=O)(=O)[O-].[Na+]` [A66(Na)], the “1,3PDS AUC0-Tlast” value in data set [1] (setting [6]) is “BLLQ”.

As to `CC(CO)(CO)COS(=O)(=O)CCCS(=O)(=O)O` [A68(Na)], the “1,3PDS AUC0-Tlast” value in data set [1] (setting [6]) is “BLLQ”.

Regarding `CC(C)(C#N)COS(=O)(=O)CCCS(=O)(=O)OCC(C)(C)C#N` [Compound B71], the “1,3PDS AUC0-Tlast” value in data set [1] (setting [6]) was “BLLQ”.

Consider `O=S1(=O)CCCS(=O)(=O)O1` [Compound C1], for which, in data set [3], the “Conversion to 1,3PDS (% by molar ratio) 0.5 h” value is “AULQ”, the “Conversion to 1,3PDS (% by molar ratio) 1 h” value is reported as “AULQ”, the “Conversion to 1,3PDS (% by molar ratio) 4 h” value was “AULQ” and the “Conversion to 1,3PDS (% by molar ratio) 24 h” value is given as “AULQ”. For the same compound, the “Conversion to 1,3PDS (% by molar ratio) 0 h” value in data set [3] was “AULQ”. In data set [4], the “Conversion to 1,3PDS (%) 1 h” value was 57.3%, the “Conversion to 1,3PDS (%) 2 h” value is on record as 63.1%, the “Conversion to 1,3PDS (%) 0 h” value is given as 50.3% and the “Conversion to 1,3PDS (%) 24 h” value turned out to be 61.2%.

Turning to `CC(C)(C)C(C#N)OS(=O)(=O)CCCS(=O)(=O)OC(C#N)C(C)(C)C` (stereo not drawn) [Compound B84], the “1,3PDS AUC0-Tlast” value in data set [2] (male, Sprague-Dawley) is 2953 ng·h/mL.
